Data as given in patent publication US10968190B2, “Processes for preparing oxathiazin-like compounds” (GEISTLICH PHARMA AG, priority 2014, dated 2021).
≈ marks a conversion by molar mass, not a printed value. Like-named read-outs stand apart in the source and are kept apart here.

How the values were obtained:
[1] = tested on: human glioma cell line LN-229; assay: Cytotoxicity assay in LN-229 cells (crystal violet); assay type: cell-based; details: for OD (absorbance at 540 nm; high values = high cell viability): 24 h; for EC50: Homo sapiens, LN-229, 24 h
Protocol: Cell lines: The human glioma cell line LN-229 was used as described previously (Rodak et al. 2005) as well as the human colon adenocarcinoma cell line SW480.
Cytotoxicity assay: Dissociated LN-229 cells were seeded into 96-well plates at a density of 10^4 cells per well in 100 μl of culture medium. […] Triplicate cultures were prepared for each sample. After 24 h of incubation at […], the remaining adherent viable cells were stained using crystal violet as described (Rodack et al. 2005). Cell viability was determined by measuring the absorbancy at 540 nm. The results are expressed as killing rate given by the difference between 100% of cells and percentage of cells surviving. EC50 values correspond to the concentration inducing 50% cell death.

[2] = Half-life in human fresh blood in vitro by GC; assay type: in vitro ADME; details: 37° C.
Staphylococcus aureus = assay: Antibacterial activity against Staphylococcus aureus; assay type: cell-based
Escherichia coli = assay: Antibacterial activity against Escherichia coli; assay type: cell-based
[3] = tested on: MRSA lines 188, 189, 193, 194 and 195; assay: Punch plate tests against MRSA; assay type: cell-based
[4] = tested on: cancers identified herein; assay: Administration to patients having cancers (Example 5); assay type: in vivo; details: Example 5, present tense
Protocol: Each of these compounds is administered with Vitamin D3, a derivative, metabolite or analog thereof and the combination is found to increase the anti-tumor effects of the compounds.

[5] = tested on: tumor cell lines AsPC-1, BxPC-3 and HCT-116; assay: Inhibition of cell viability in tumor cell lines; assay type: cell-based; details: read-out: Half-maximal inhibition of cell viability
Excerpt: These effects are similar to those observed in glioma cell line LN-229. The induction of cell death was due to apoptosis and necrosis (most likely necroptosis). […] Thus, there is a redox-directed mechanism of action.

[6] = tested on: pancreas tumor cells (AsPC-1, BxPC-3 and HCT-116); assay: Growth inhibition of pancreas tumor cells; assay type: cell-based; details: read-out: half-maximal concentration of growth inhibition
Protocol: The growth of pancreas tumor cells (AsPC-1, BxPC-3 and HCT-116) was inhibited by compound 2250 with a half-maximal concentration of 300 μM, which is considerably lower than the concentration needed to elicit cytotoxicity.

[7] = tested on: multicellular pancreatic tumor (Panc Tul or BxPC-3) spheroids; assay: Pancreatic stem cell-like multicellular spheroid toxicity assay; assay type: cell-based; details: taurolidine 500 μM, compound 2250 1000 μM, 48 hours
Excerpt: Multicellular spheroids are composed of tumor cells growing in a 3-dimensional structure stimulating the growth, micro-environmental conditions and stem cell-like characteristics of real tumors. The multicellular tumor spheroid (MCTS) model compensates for many of the deficiencies seen in monolayer cultures. Spheroids on the scale of 200-500 μm develop chemical gradients of oxygen, nutrients, and catabolites, while having morphological and functional features similar to tumors. Therefore, assays utilizing the MCTS model allow for the assessment of drug penetration and are more predictive of in vivo success compared with monolayer cultures. MCTS assays are a tumor model system of intermediate complexity between standard monolayer and tumors in vivo.
Pancreatic tumor cells (Panc Tu-1, BxPC-3, Mia Paca-2, ASPC1) and pancreatic primary tumor cells (Bo80) were seeded in ultra-low adhesion plates in special stem cell media.
Pancreatic tumor cells (ASPC1, Mia Paca-2, Panc Tul, BxPC-3) and pancreatic primary tumor cells (Bo80) were raised in monolayer culture before seeding in ultra low adhesion plates under conditions of special stem cell media to form multicellular spheroids and passed through a cell strainer to exclude aggregates. […]

MiaPaca2 tumor = assay: MiaPaca2 subcutaneous tumor model in nude mice; assay type: in vivo, nude mice (NMRI-Foxn1 nu/nu); details: 500 mg/kg i.p. on alternating days
PancTu I tumor = assay: PancTu I subcutaneous tumor model in nude mice; assay type: in vivo, nude mice (NMRI-Foxn1 nu/nu); details: 500 mg/kg i.p. on alternating days
[8] = tested on: pancreatic primary tumors (Bo 73); assay: Xenograft model of pancreatic primary tumors Bo 73; assay type: in vivo; details: Bo 73, observed for 15 days; differences not statistically relevant
Excerpt: (§1) However, the differences in tumor volumes were not statistically relevant, likely due to the short duration of the study and the slow growth rate of the tumors.

[9] = tested on: pancreatic primary tumors (Bo 70); assay: Xenograft model of pancreatic primary tumors Bo 70; assay type: in vivo; details: Bo 70, observed for 23 days
Excerpt: as §1

[10] = Water solubility and isotonicity; assay type: physicochemical
Excerpt: In certain embodiments, no PVP necessary to increase the solubility. For example, a 3.2% solution 2250 is isotonic. This is an unexpected advantage over taurolidine.

[11] = Toxicity in mice during the tumor study; details: 500 mg/kg i.p. on alternating days
Protocol: 1×10^7 tumor cells (PancTu-I and MiaPaca 2) were injected subcutaneously into the flank.
Tumors were grown to a size of 200 mm^3 before the treatment was started. Mice were treated on alternating days with 500 mg/kg*body weight (BW).

O=S1(=O)CCOCN1 [compound 2250, Tetrahydro1,4,5-oxathiazin-4-dioxide]
OD (absorbance at 540 nm; high values = high cell viability) ([1]; 4 μg/ml): 1.477
OD (absorbance at 540 nm; high values = high cell viability) ([1]; 8 μg/ml): 1.527
OD (absorbance at 540 nm; high values = high cell viability) ([1]; 15.5 μg/ml): 1.482
OD (absorbance at 540 nm; high values = high cell viability) ([1]; 31 μg/ml): 1.482
OD (absorbance at 540 nm; high values = high cell viability) ([1]; 62.5 μg/ml): 0.372
OD (absorbance at 540 nm; high values = high cell viability) ([1]; 250 μg/ml): 0.120
OD (absorbance at 540 nm; high values = high cell viability) ([1]; 500 μg/ml): 0.141
OD (absorbance at 540 nm; high values = high cell viability) ([1]; 1000 μg/ml): 0.189
EC50 ([1]; read-out: EC50 (concentration inducing 50% cell death), LN-229 cells, 24 h incubation): 45 µg/mL (≈ 328 µM)
EC50 ([1]; read-out: half-maximal concentration of inducing cell death EC50): 50 µg/mL (≈ 365 µM)
concentration in human fresh blood ([2]; After 1 hour): 50.6 ppm
concentration in human fresh blood ([2]; After 2 hours): 47.6 ppm
concentration in human fresh blood ([2]; After 20 hours): 38.6-39.0 ppm
concentration in human fresh blood ([2]; Baseline Value): 49.0 ppm
half-life at 49 ppm ([2]; human fresh blood, in vitro): > 24 h
antibacterial activity relative to Taurultam (Staphylococcus aureus; Staph. aureus): about double as high as Taurultam
antibacterial activity (Staphylococcus aureus; Staphylococcus aureus): very high level of antibacterial activity
antibacterial activity (Escherichia coli): very high level of antibacterial activity
activity in punch plate tests [3]: highly active
effectiveness in treating cancers in patients [4]: effective in treating such cancers
safety for use in patients [4]: safe for use in patients
IC50 [5]: 750 to 1000 µM
IC50 [6]: 300 µM
effect on pancreatic stem cell like multicellular spheroid cultures [7]: antineoplastic effect
decrease of MiaPaca2 tumor volume compared to control (MiaPaca2 tumor): over 3 fold
decrease of PancTu I tumor volume compared to control (PancTu I tumor): about 2 fold
relative tumor volume compared to control [8]: further reduced relative tumor volume compared to control
tumor volume compared to control [9]: significantly reduce tumor volume compared to control
solubility in water [10]: very soluble in water
concentration of isotonic solution ([10]; no PVP): 3.2%
toxic effect on the mice during the study [11]: no toxic effect
